This is an account of results in a melting point compilation (Tetko et al.; mined from patent text by program, amines drawn as free bases though some values may be those of a salt).

As to `Cn1nc(OC2=CC(CF)(CF)Oc3ccc(C(F)(F)C(F)(F)F)cc32)ccc1=O`, the melting point – broadly, the temperature, or range, at which the solid turns liquid – lay in the range of 150 to 152 °C.

Molecule `Cc1c(-c2ccc(OCC3CC3)cc2)nc2n(Cc3c(F)cccc3F)cc(-c3ccccc3)c(=O)n12` registered a melting point of 210 to 214 °C. Under `CN(CCc1c[nH]c2ccccc12)C(=O)CCCC(=O)O` stands 125 to 126 °C; under `COc1ccc(CC(C)=O)cc1S(N)(=O)=O`, 194 to 196 °C. Molecule `O=C1N(C2=NCCS2)c2ccccc2C12SCCS2` returned a melting point of 154 to 157 °C. `COc1cc(C)nc(NC(=O)NS(=O)(=O)c2ccccc2-c2ccccc2)n1` returned a melting point of 199 to 202 °C.

Take `C=C(F)C(=O)Oc1c(Cl)c(Cl)c(Cl)c(Cl)c1Cl`: the melting point is 90 to 92 °C. `CNc1cc(Cl)cc(NC)c1[N+](=O)[O-]` gave a melting point of 193 °C.

In turn, `COc1cc2c(NC3CCCC3)c(C#N)cnc2cc1F` yielded a melting point of 162 to 164 °C. `Cc1c(C(=O)c2cnn(C(C)C)c2O)ccc2sc(=O)n(C)c12` returned a melting point of 175 to 177 °C.

As to `NC(=NO)c1nn(-c2c(Cl)cc(C(F)(F)F)cc2Cl)c(N)c1S(=O)C(F)(F)F` (centres undefined), the melting point was in the range of 203 to 205 °C. `COc1cc2c3c(n(Cc4ccccc4)c2cc1OC)CCCC3C(=O)N1CCN(c2ccccc2)CC1` (centres undefined): the melting point is 245 to 247 °C. The molecule `COc1ccc2[nH]ncc2c1Br` returned a melting point of 178 to 180 °C.

In the case of `CCC(N)CCCCCCCCC(C)(C)C(=O)O` (centres undefined), the melting point was in the range of 164 to 165 °C. The molecule `N#CCc1c(C(N)=O)ncn1C1CCCCO1` (centres undefined) showed a melting point of 198 to 199 °C. For the molecule `COC(=S)C(C)=CNc1ccc(OC)c(Cl)c1`, the melting point was in the range of 110 to 112 °C. Under `Cc1cc(O)c(C)c2c1NCC2` stands 155 to 158 °C.

The molecule `COc1cc2[nH]c(=O)n(-c3ccccc3C)c(=O)c2cc1OC` came in with a melting point of 282 to 284 °C. For the molecule `CC(C)CSc1ccc(N)c([N+](=O)[O-])c1`, the melting point lay in the range of 56.5 to 58.5 °C.

`CC(C)(C)[N+]([O-])=Cc1cc([N+](=O)[O-])ccc1O` gave a melting point of 172 °C. In turn, `C=C(C)C(=O)NCCCNc1nc(Cl)nc(Cl)n1` displayed a melting point of 138 to 140 °C.

Consider `CSc1nc(F)cc(F)n1`, for which the melting point fell in the range of 31 to 32 °C. Under `O=C1c2cc([N+](=O)[O-])ccc2OCN1CCO[N+](=O)[O-]` stands 97 to 99 °C; under `CCOC(=O)c1cnc2c3ccccc3ccn2c1=O`, 183 to 184 °C. The result for `CC(C)(C)OC(=O)N1CCC(c2nc3cc(-c4ccc(S(C)(=O)=O)cc4F)ccc3o2)CC1` reads 144 to 147 °C.

In turn, `O=C(O)c1ccccc1Oc1ccc(C(F)(F)F)cc1NS(=O)(=O)c1ccc(Br)cc1` gave a melting point of 167 to 168 °C. Under `Nc1nc(N)nc(C2CCN(Cc3ccccc3)CC2)n1` stands over 260 °C; under `COc1ccc(CC(C)(C)C(=O)O)cc1C(=O)NCc1ccc(C(F)(F)F)cc1`, 151 to 152 °C; under `O=C(C=CCN1CCN(CC(=O)OCc2ccccc2)CC1)Nc1cc2c(Nc3ccc(F)c(Cl)c3)ncnc2cc1OCC1CC1`, 174 °C.

For the molecule `O=C(O)C1(S(=O)(=O)c2ccc(Oc3ccc(Cl)cc3)cc2)CCN(Cc2ccccc2)CC1`, the melting point is 201 °C. Take `CCOC(=O)c1ncn2c1CNC(=O)c1c(Cl)cccc1-2`: the melting point is 278 to 279 °C. The result for `CC(C)CCC(=O)OC1c2ccccc2C(=O)N1c1ccc2ccc(Cl)nc2n1` (centres undefined) reads 147 °C. `CCCc1nc2ccccc2c(C(=O)O)c1Oc1ccc(-c2ccccc2-c2nnn(C(c3ccccc3)(c3ccccc3)c3ccccc3)n2)cc1`: the melting point was 167 to 170 °C. Under `COc1cccc(Cn2cc3c(-c4cccc(C(=O)NCCC#N)c4)cccc3n2)n1` stands 145 to 146 °C; under `O=C(O)c1ccc(C(=O)/C=C/c2ccc(N3CCCC3)c(-c3cccs3)c2)cc1`, 212 to 214 °C; under `O=C(Nc1c[nH]nc1C(=O)NC1CCCCC1)c1ccccn1`, 262 to 263 °C. With `CCNC(=N)N1CCc2[nH]cnc2C1CC` (centres undefined), the melting point came out at 275 °C.

Molecule `CN(C)c1nc(NS(=O)(=O)c2ccc(N)cc2)cc(N2CCC2)n1` had a melting point of 239 to 240 °C. `CCOCc1nc2c(N)nc3cc(OCc4ccccc4Cl)ccc3c2n1CC(C)C` came in with a melting point of 211 to 212 °C.

`CC(C)Oc1ccc2ncn(/C=C/C(=O)O)c(=O)c2c1` gave a melting point of 232 to 234 °C.

The molecule `CC(C)c1nn(Cc2ccc(Cl)cc2Cl)cc1CCCO` gave a melting point of 68 to 69 °C.

Consider `CCCCN1CCC(C(=O)O)(S(=O)(=O)c2ccc(Oc3ccc(Cl)cc3)cc2)CC1`, for which the melting point stood at 201 °C. `C=C1CCCCC1(C(=S)NC)c1cccnc1` (centres undefined) came in with a melting point of 106 to 108 °C.

As for `Cc1ccc(C(=S)CCCCCC#N)cc1`, the melting point was in the range of 49.5 to 51 °C. `Cc1ccc(S(=O)(=O)n2ccc3c(Cl)ncnc32)cc1` registered a melting point of 143 °C. In the case of `CCN(CC)S(=O)(=O)c1ccc2c(c1)-c1c(nc(C)[nH]c1=O)CC2`, the melting point was 249 to 251 °C. Under `Cc1ccc(S(=O)(=O)OC[C@H](O)c2ccc(OCc3ccccc3)cc2)cc1` stands 91 to 92 °C. The molecule `CC(CF)(CF)C(=O)C(Oc1ccc(Cl)cc1)n1cnnc1` (centres undefined) yielded a melting point of 119 to 122 °C.

On to `CC1(C)[C@H](Cc2noc(C3CCCCC3)n2)CC[C@]1(C)NCC(=O)N1C[C@@H](F)C[C@H]1C#N`, for which the melting point was 152 to 153 °C. As to `Nc1ccc2ccc(-c3cccc(F)c3)nc2n1`, the melting point was 160 °C.

Molecule `O=C(O)COc1c2ccccc2c(-c2cc(Br)c(OC(Cc3ccccc3)C(=O)O)c(Br)c2)c2c1sc1ccccc12` (centres undefined) displayed a melting point of 110 to 120 °C. The result for `Cc1cc(C)cc(-c2nnc(C#N)o2)c1` reads 127 °C; that for `Nc1ncc2c(n1)-c1ccccc1C(c1ccccc1)=NC2`, 201 to 205 °C. Under `Cc1ccc(N)cc1C(=O)NS(C)(=O)=O` stands 174 to 176 °C. The result for `O=C(O)c1cc(Oc2cc(F)c(C(F)(F)F)c(Cl)c2)ccc1Br` reads 113 to 117 °C; that for `CC(CCNC(=O)c1ccc(Cl)s1)n1ccnc1` (centres undefined), 141 to 143 °C; that for `O=C(CO)N1CCN(c2ccc(Nc3cc(-c4cnc5cc[nH]c5c4)cn4ccnc34)nc2)CC1`, 218 to 220 °C. In the case of `CN(C)Cc1ccc(CSCCNC(=O)C=CC(=O)NCCCOc2cccc(CN3CCCC3)c2)o1`, the melting point is 126 to 128 °C. The result for `CC(=O)Oc1cnc(C(C)(C)C)nc1O` reads 164 °C; that for `COC(=O)Nc1nc2ccccc2n1C(=O)NCC1(C)CC(NC(=O)n2c(NC(=O)OC)nc3ccccc32)CC(C)(C)C1` (centres undefined), 82 to 83 °C; that for `O=C(O)CCc1c(C=C2C(=O)Nc3ccccc32)[nH]c2c1CCCC2`, 263 to 265 °C.

`COc1ccc(S(=O)(=O)n2c(CCC(=O)O)cc3cc(Cl)ccc32)cc1` had a melting point of 95 to 98 °C. Under `CCCc1nc2c(N)nc3ccccc3c2n1CCCCCC(=O)N(C)OC` stands 134 to 135 °C; under `Cc1noc([C@@H]2CSCc3c(O)cc(O)c(C)c3C(=O)OC[C@@H](O)C(=O)N2)n1`, 265 to 267 °C.
